This series can be described thus: Stability of the vitamin D3+RAMEB complex at 40° C./75% RH in sealed amber glass pill containers. The format is physicochemical. The protocol:
The stability of the vitamin D3+RAMEB complex of Example 1B at 40° C./75% RH was tested and compare to the stability of: 1) pure vitamin D3, 2) a concentrate of vitamin D3 in powder form (DSM).
The study is carried out in pill containers of sealed amber glass (stopper of type for antibiotics, chlorobutyl, grey, D13—natural aluminium crimp-on cap D20 mm, tear-off lid).

`C=C1CC[C@H](O)C/C1=C/C=C1\CCC[C@]2(C)[C@@H]([C@H](C)CCCC(C)C)CC[C@@H]12` [pure vitamin D3, cholecalciferol]: the “% vitamin D3” value amounted to 98.0% (t0); 20.3% (t0 + 3 weeks, 40° C./75% RH); 23.1% (t0 + 6 weeks, 40° C./75% RH).

(Values after patent US20110130370A1, “Pharmaceutical composition comprising a strontium salt, vitamin D and A cyclodextrin” (LES LABORATORIES SERVIER, priority 2009, published 2011).)
